Results: ChEMBL document CHEMBL1134423, “Synthesis and acetylcholinesterase inhibition of 5-desamino huperzine A derivatives” (Bioorg Med Chem Lett, 2001)
pIC50, pKi: −log10 of the molar value.

Columns and labels:
Acetylcholinesterase [1] = target: T1, Acetylcholinesterase (Rattus norvegicus, UniProt P37136); assay: Compound was tested for its ability to inhibit acetylcholinesterase (AChE) in rat brain; type: tissue-based
T1 sequence (P37136 whole entry): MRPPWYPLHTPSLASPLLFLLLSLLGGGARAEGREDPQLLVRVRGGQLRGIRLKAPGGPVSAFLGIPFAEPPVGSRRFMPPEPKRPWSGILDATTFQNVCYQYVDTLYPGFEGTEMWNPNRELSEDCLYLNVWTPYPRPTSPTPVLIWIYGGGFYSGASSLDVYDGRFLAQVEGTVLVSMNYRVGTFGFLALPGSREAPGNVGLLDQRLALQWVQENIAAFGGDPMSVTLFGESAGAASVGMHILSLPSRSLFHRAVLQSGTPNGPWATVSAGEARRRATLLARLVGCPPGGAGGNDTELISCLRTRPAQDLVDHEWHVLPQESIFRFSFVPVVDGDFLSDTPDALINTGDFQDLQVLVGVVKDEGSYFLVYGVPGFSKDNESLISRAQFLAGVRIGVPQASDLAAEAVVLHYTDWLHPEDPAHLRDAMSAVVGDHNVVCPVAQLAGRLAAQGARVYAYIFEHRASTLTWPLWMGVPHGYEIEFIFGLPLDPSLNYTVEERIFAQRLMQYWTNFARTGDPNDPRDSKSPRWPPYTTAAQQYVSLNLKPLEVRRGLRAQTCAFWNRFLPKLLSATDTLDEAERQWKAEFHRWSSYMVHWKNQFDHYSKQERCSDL

Acetylcholinesterase [2] = target: T1, Acetylcholinesterase

Row | SMILES | pIC50 (Acetylcholinesterase [1]) | pKi (Acetylcholinesterase [1]) | pKi (Acetylcholinesterase [2])
1 | C/C=C1\C2C=C(C)CC1c1ccc(O)nc1C2 (configuration not stated) | 4.89 | 5.70 | 
2 | CC1=CC2Cc3nc(O)ccc3C(C1)C2=O (configuration not stated) | < 3.30 | < 3.30 | 
3 | C/C=C1/C2C=C(C)CC1c1ccc(=O)[nH]c1C2 (configuration not stated) | 4.26 | 4.91 | 
4 | C/C=C1\[C@H]2C=C(C)C[C@]1(N)c1ccc(=O)[nH]c1C2 [HUPERZINE A] |  |  | 7.62
